Drawing on ChEMBL document CHEMBL1133601, “Methyl-substituted dispiro-1,2,4,5-tetraoxanes: correlations of structural studies with antimalarial activity” (J Med Chem, 2000), this text covers IC50 for three molecules.

Molecules are shown by their SMILES.

Assay [1] has as its system Plasmodium falciparum. As to the kind of experiment: In vitro antimalarial activity against Plasmodium falciparum D6 (Sierra Leone). The assay is classed as functional, organism-based.
The test system of assay [2] is Plasmodium falciparum. Nature of the assay: In vitro antimalarial activity against Plasmodium falciparum W2 (Indochina). The assay is classed as functional, organism-based.

Consider `CC1(C)CCCCC12OOC1(CCCCC1(C)C)OO2` (stereo unspecified), for which the IC50 in assay [1] and in assay [2] was over 1000 nM in each case.

As for `C[C@@H]1CCC[C@@H](C)C12OOC1(OO2)[C@@H](C)CCC[C@@H]1C`, the concentration for half-maximal inhibition (IC50) in assay [1] and in assay [2] was over 1000 nM in each case.

With `C[C@@H]1CC[C@H]2[C@@H](C)C(=O)O[C@@H]3O[C@@]4(C)CC[C@@H]1[C@]32OO4` [ARTEMISININ], the IC50 in assay [1] is 8.4 nM; in assay [2], 7.3 nM.
